This series is described as follows: solvent given as SMILES.

Here are results for 41 compounds from the Deep4Chem optical property database.

`Cc1ccc(C2CC(c3ccc(O)cc3)=NN2c2ccc(S(N)(=O)=O)cc2)cc1` (configuration not stated): the emission maximum is, setting by setting: (in C1CCOC1) 417 nm; (in C1COCCO1) 417 nm; (in CC#N) 417 nm; (in CC(C)O) 423 nm; (in CCO) 428 nm; (in CCOC(C)=O) 415 nm. Besides, the emission maximum by setting is: (in CN(C)C=O) 422 nm; (in CO) 432 nm; (in CS(C)=O) 424 nm; (in O) 449 nm.
For `CCC1(CC)c2cc(-c3ccc(N(c4ccc(-c5ccc6c(c5)C(CC)(CC)c5cc(N7c8ccccc8C(C)(C)c8ccccc87)ccc5-6)cc4)c4ccc(-c5ccc6c(c5)C(CC)(CC)c5cc(N7c8ccccc8C(C)(C)c8ccccc87)ccc5-6)cc4)cc3)ccc2-c2ccc(N3c4ccccc4C(C)(C)c4ccccc43)cc21`, the emission maximum (in ClC(Cl)Cl) is on record as 431 nm.
`CCN1C(=O)C(C2C(=O)c3c4ccccc4cc4cc5ccccc5c2c34)SC1=S` (configuration not stated): the emission maximum (in C1CCOC1) stood at 570 nm; the emission maximum (in CC#N) is recorded as 593 nm; the emission maximum (in CCCCCC) came out at 539 nm; the emission maximum (in Cc1ccccc1) worked out at 563 nm; the emission maximum (in ClCCl) is recorded as 582 nm.
For `CCCCCCCCC1(CCCCCCCC)c2cc(-c3ccccc3)ccc2-c2ccc(-c3ccccc3)cc21`, the emission maximum (in ClC(Cl)Cl) amounted to 361 nm.
Where the note is “in ClCCl”, `COC(=O)c1ccc(C2=C3C=c4sccc4=[N+]3[B-](F)(F)n3c2cc2sccc23)cc1` gave an emission maximum of 604 nm.
Same read-out and setting: the same measure for `CCOC(=O)c1c(C(=O)OC)c(-c2cc3cc(OC)ccc3oc2=O)nn1-c1ccccc1`: 451 nm.
On to `Cc1ccc(-n2c3ccccc3c3cc(C(=C(C#N)C#N)c4ccccc4)ccc32)cc1`, for which the emission maximum was determined as 527 nm (in C1CCOC1); 545 nm (in CC#N); 567 nm (in CC(C)=O); 540 nm (in CCOC(C)=O); 583 nm (in CO); 591 nm (in CS(C)=O). The emission maximum reads like this: (in Cc1ccccc1) 517 nm; (in ClC(Cl)Cl) 546 nm.
For the compound `Cc1nc2c(c[n+]1C)CN1C(=O)N([C@H]3O[C@@H](CO)[C@H](O)[C@@H]3O)C=CC1=N2`, the emission maximum reads like this: (in CC#N) 416 nm; (in CC(C)=O) 418 nm; (in CCCCO) 417 nm; (in CCCO) 417 nm; (in CCO) 417 nm; (in CO) 417 nm. In addition, the emission maximum reads like this: (in O) 414 nm; (in [2H]OC) 417 nm; (in [2H]OCC) 417 nm; (in [2H]O[2H]) 414 nm.
With `C/C(=C\c1ccccc1)c1nc2ccccc2o1`, the emission maximum runs as follows: (in C1CCCCC1) 370 nm; (in CO) 380 nm.
Consider `CC(C)(C)NC(=O)c1cccc2ccc3c4cc(Cl)ccc4c4ccc(Cl)cc4c3c12`, for which the emission maximum (in ClCCl) was 407 nm.
On the same count and under the same terms, as for `COc1ccc2cc(C(C)C(=O)Oc3ccc(-c4c5nc(c(-c6ccc(C)cc6)c6ccc([nH]6)c(-c6ccc(C)cc6)c6nc(c(-c7ccc(C)cc7)c7ccc4[nH]7)C=C6)C=C5)cc3)ccc2c1` (configuration not stated), the figure is 654 nm.
With `C#CCN1C(=O)/C(=C/c2cc(OC(C)C)ccc2OC(C)C)N=C1C`, the emission maximum is, setting by setting: (in C1COCCO1) 476 nm; (in CC#N) 508 nm; (in CC(C)=O) 487 nm; (in CCCCCC) 440 nm; (in CCCCO) 516 nm; (in CCCO) 521 nm. The emission maximum runs as follows: (in CCO) 523 nm; (in CCOC(C)=O) 475 nm; (in CN(C)C=O) 500 nm; (in CO) 538 nm; (in CS(C)=O) 510 nm.
`Cc1c(C)c(-c2ccc(-c3cccnc3)cc2)c(C)c(C)c1B(c1c(C)c(C)c(-c2ccc(-c3cccnc3)cc2)c(C)c1C)c1c(C)c(C)c(-c2ccc(-c3cccnc3)cc2)c(C)c1C` had an emission maximum (in ClCCl) of 404 nm.
Same read-out and setting: as for `CC1=C(C#Cc2ccc(B(c3c(C)cc(C)cc3C)c3c(C)cc(C)cc3C)cc2)C(C)=[N+]2C1=C(c1ccccc1)c1c(C)c(C#Cc3ccc(B(c4c(C)cc(C)cc4C)c4c(C)cc(C)cc4C)cc3)c(C)n1[B-]2(F)F`, the figure is 602 nm.
Take `COc1ccc(-c2ccc(OC)cc2)cc1`: the emission maximum (in C1CCCCC1) is 363.77 nm.
`COc1cc2oc(=O)c3c4ccc(N(C)C)cc4c4ccc5cccc6c(c1)c2c3c4c56` showed an emission maximum (in C1CCOC1) of 577 nm.
The compound `Cc1c(C)c(N2c3ccccc3CCc3ccccc32)c(C)c(C)c1-c1nc(-c2ccccc2)nc(-c2ccccc2)n1` came in with an emission maximum (in Cc1ccccc1) of 457.94 nm.
In the case of `F[B-]1(F)n2cccc2C(c2c3ccccc3c(-c3ccccc3)c3ccccc23)=C2C=CC=[N+]21`, the emission maximum reads like this: (in CC#N) 524 nm; (in CCCCCC) 564 nm; (in CCO) 522 nm; (in CN(C)C=O) 526 nm; (in Cc1ccccc1) 529 nm; (in ClCCl) 526 nm.
In the case of `N#Cc1cnc(-c2c3ccccc3cc3ccccc23)nc1`, the emission maximum is, setting by setting: (in CCO) 510 nm; (in ClCCl) 492 nm.
Under “in ClC(Cl)Cl”, `Cc1c2c(c(C)c3ccccc13)C1=C2C=CC2Nc3ccccc3NC12` (configuration not stated) came in with an emission maximum of 544 nm.
Turning to `Cc1nc2cccc(-c3nc4ccc([N+](=O)[O-])cc4[nH]3)c2c(=O)[nH]1`, under “in CN(C)C=O”, the emission maximum is recorded as 450 nm.
For `COCCOCCOCCOc1ccc(/C=C/C2=[N+]3C(=C(c4cc(OC)cc(OC)c4)c4c(C)c(I)c(/C=C/c5ccc(OCCOCCOCCOC)cc5)n4[B-]3(F)F)C(C)=C2I)cc1`, the emission maximum runs as follows: (in C1CCOC1) 684 nm; (in CS(C)=O) 695 nm; (in ClCCl) 687 nm.
Consider `O=Cc1ccc(-c2ccc(C3=CCCCC3)s2)s1`, for which the emission maximum (in C1CCOC1) is 467 nm; the emission maximum (in CC#N) is 485 nm; the emission maximum (in CCCCCC) is listed as 444 nm; the emission maximum (in CCO) was determined as 498 nm; the emission maximum (in OCCOCCO) turned out to be 508 nm; the emission maximum (in c1ccncc1) is recorded as 483 nm.
`COc1ccc(C2=[N+]3C(=Nc4c(-c5cc(OC)c(OC)c(OC)c5)cc(-c5ccc(OC)cc5)n4[B-]3(F)F)C(c3cc(OC)c(OC)c(OC)c3)=C2)cc1` registered an emission maximum (in Cc1ccccc1) of 724 nm.
As for `Cc1nc2c(ccc3ccc(O)cc32)oc1=O`, the emission maximum (in c1ccccc1) stood at 461 nm.
Turning to `C[Si]1(C)O[Si](C)(C)c2cc3c(-c4ccccc4)c4ccccc4nc3cc21`, the emission maximum (in ClCCl) amounted to 502 nm.
Still for that read-out and setting: the same measure for `CN(C)c1ccc(-c2cc(-c3ccccc3)nn2C)cc1`: 365 nm.
Take `CC1(C)c2ccccc2N(c2ccc3c(c2)Oc2ccccc2P3(=O)c2ccccc2)c2ccccc21` (configuration not stated): the emission maximum is, setting by setting: (in Cc1ccccc1) 433 nm; (in O=P(c1ccccc1)(c1ccccc1)c1ccccc1Oc1ccccc1P(=O)(c1ccccc1)c1ccccc1) 434 nm.
`CC[n+]1c(-c2ccccc2)c2cc(N)ccc2c2ccc(N)cc21` displayed an emission maximum (in O) of 606 nm.
With `COC(=O)C1=C(C(=O)OC)C2(c3ccccc3-c3ccc([N+](=O)[O-])cc32)C2(/C=C/c3ccccc3)c3cc(OC)c(OC)cc3CCN12` (configuration not stated), the emission maximum (in ClCCl) was 510 nm.
For `F[B-]1(F)Oc2c(ccc3c4c(ccc23)C=[N+](c2ccccc2)[B-](F)(F)O4)C=[N+]1c1ccccc1`, the emission maximum (in Cc1ccccc1) is 538 nm and the emission maximum (in ClCCl) worked out at 533 nm.
With `Cc1ccc(C2=Cc3ccc4ccccc4[n+]3[B-](F)(F)O2)cc1`, the emission maximum (in ClC(Cl)Cl) is 443 nm.
With `Cc1ccc2nc(/C=C/c3ccc(N(C)C)cc3)c(-c3ccccc3)nc2c1`, the emission maximum by setting is: (in C1COCCO1) 528 nm; (in CC#N) 614 nm; (in ClCCl) 571 nm.
Consider `c1cnc(-c2c3ccccc3c(-c3cncnc3)c3ccccc23)nc1`, for which the emission maximum runs as follows: (in CCO) 433 nm; (in ClCCl) 436 nm.
As for `F[B-]1(F)n2c(c3ccccc3c2-c2ccccc2)C=C2c3ccccc3C(c3ccccc3)=[N+]21`, the emission maximum runs as follows: (in C1CCOC1) 662 nm; (in ClCCl) 658 nm.
Regarding `CN(C)c1ccc(C#Cc2cc(C#Cc3ccc(C(F)(F)F)cc3)c3ccc4c(C#Cc5ccc(C(F)(F)F)cc5)cc(C#Cc5ccc(N(C)C)cc5)c5ccc2c3c54)cc1`, the emission maximum (in ClCCl) was 608 nm.
Same read-out and setting: as for `CC1=C(c2ccccc2)C(C)=[N+]2C1=C(c1c(-c3ccccn3)nc3ccccn13)c1c(C)c(-c3ccccc3)c(C)n1[B-]2(F)F`, the figure is 585 nm.
`CN1/C(=C/C=C/C2=[N+](CCCCCC(=O)O)c3ccc(S(=O)(=O)[O-])cc3C2(C)C)C(C)(C)c2cc(S(=O)(=O)[O-])ccc21` came in with an emission maximum (in O) of 562 nm.
In turn, `N#C/C(=C\c1ccc(C(F)(F)F)cc1)c1nc(-c2ccc(Cl)cc2)cs1` gave an emission maximum (in CC#N) of 490 nm.
As to `O=C(c1ccccc1)c1cc2ccc1CCc1ccc(c(-c3ccc(N(c4ccccc4)c4ccccc4)cc3)c1)CC2`, the emission maximum (in Cc1ccccc1) is on record as 455 nm and the emission maximum (in c1cc(-n2c3ccccc3c3ccccc32)cc(-n2c3ccccc3c3ccccc32)c1) worked out at 468.87 nm.
Take `CC1=N/C(=C\c2ccccc2N)C(=O)N1C`: the emission maximum (in C1CCCCC1) is on record as 451 nm; the emission maximum (in C1CCOC1) worked out at 513 nm; the emission maximum (in CC#N) is 453 nm; the emission maximum (in CO) amounted to 454 nm; the emission maximum (in CS(C)=O) was found to be 530 nm; the emission maximum (in ClCCl) amounted to 452 nm. Besides, under “in O”, the emission maximum turned out to be 452 nm.
